Structures can show the parent of a compound that is named as a salt.
Tests used:
[1] = biological target: T1, proton pump (H+/K+-ATPase) (Sus scrofa, UniProt P19156); assay: Inhibitory effects on proton pump (H+/K+-ATPase) activity; type: biochemical; conditions: hog gastric vesicles, K+ stimulated H+/K+-ATPase activity, Pi at 620 nm, 30 minutes at 37° C.
T1 construct: used as an enzyme source of the in vitro enzyme reaction assay of proton pump; from tissue; host or cells: hog gastric fundic mucosa; membrane vesicles, lyophilized
T1 sequence (P19156 whole entry): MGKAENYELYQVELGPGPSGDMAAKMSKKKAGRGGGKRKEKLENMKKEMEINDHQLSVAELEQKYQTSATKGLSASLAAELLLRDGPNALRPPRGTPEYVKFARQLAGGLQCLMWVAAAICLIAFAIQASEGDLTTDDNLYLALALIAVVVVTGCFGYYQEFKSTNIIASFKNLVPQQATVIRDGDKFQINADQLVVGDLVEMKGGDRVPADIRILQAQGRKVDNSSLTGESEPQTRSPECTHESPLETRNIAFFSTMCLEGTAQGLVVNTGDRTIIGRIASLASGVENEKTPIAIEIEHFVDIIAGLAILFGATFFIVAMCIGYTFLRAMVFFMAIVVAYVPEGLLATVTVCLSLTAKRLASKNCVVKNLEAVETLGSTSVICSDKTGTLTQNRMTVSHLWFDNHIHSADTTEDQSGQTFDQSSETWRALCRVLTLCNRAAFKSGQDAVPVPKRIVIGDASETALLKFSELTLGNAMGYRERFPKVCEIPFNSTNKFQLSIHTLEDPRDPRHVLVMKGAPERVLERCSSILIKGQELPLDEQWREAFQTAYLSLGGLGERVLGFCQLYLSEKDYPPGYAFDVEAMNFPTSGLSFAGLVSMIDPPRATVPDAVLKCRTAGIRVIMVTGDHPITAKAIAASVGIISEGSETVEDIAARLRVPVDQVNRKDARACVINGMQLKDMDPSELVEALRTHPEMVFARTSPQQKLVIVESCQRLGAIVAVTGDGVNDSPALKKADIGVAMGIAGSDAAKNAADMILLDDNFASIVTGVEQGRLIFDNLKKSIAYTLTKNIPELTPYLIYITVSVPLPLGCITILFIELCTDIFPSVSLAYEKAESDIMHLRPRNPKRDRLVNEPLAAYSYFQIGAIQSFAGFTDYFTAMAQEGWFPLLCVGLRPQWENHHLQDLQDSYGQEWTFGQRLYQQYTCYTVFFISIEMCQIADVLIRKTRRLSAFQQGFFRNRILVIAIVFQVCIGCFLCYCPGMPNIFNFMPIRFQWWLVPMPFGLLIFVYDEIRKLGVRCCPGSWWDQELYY
T1 sequence (P18434 whole entry partner): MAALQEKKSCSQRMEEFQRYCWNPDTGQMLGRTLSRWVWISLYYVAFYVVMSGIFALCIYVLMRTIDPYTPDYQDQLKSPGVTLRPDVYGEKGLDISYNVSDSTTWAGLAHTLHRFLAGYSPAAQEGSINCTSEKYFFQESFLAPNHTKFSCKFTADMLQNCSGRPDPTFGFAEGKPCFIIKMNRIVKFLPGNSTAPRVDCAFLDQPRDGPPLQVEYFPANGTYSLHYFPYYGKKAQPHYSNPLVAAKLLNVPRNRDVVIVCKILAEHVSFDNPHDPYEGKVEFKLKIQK
Protocol: 1-1. Preparation of gastric proton pump vesicles
The hog fundic regions containing parietal and peptic cells were scraped with slide-glass. The collected cells were suspended in 10 ml of 0.25M sucrose buffer and homogenized using a tight-fitting Teflon-glass homogenizer. The homogenate was centrifuged for 35 min at 8,000 rpm and the pellet was discarded. The supernatant was further centrifuged for 75 min at 25,000 rpm. The resulting pellets were re-suspended in the sucrose buffer (10 ml), and then the suspension was laid onto discontinuous density gradients consisting of 0.25M sucrose buffer and isolation medium containing 9% Ficoll (w/w). After being centrifuged for 3 hours and 15 minutes at 100,000×g, the material at the interface of sucrose buffer and Ficoll solution was collected and then centrifuged for 40 minutes at 100,000×g. The resulting pellets were re-suspended in 1 ml of 5 mM Hepes/Tris buffer (pH 6.1). This material was lyophilized and stored at −70° C. and used as an enzyme source of the in vitro enzyme reaction assay of proton pump.
1-2. Measurement of inhibitory effects on proton pump (H^+/K^+-ATPase) activity
The inhibitory effects of the compounds of the present invention against proton pump activity were evaluated in 96-well plate. In this assay, the K^+specific H^+/K^+-ATPase activity was calculated based on the difference between the activity of H^+/K^30 -ATPase activity with K^30 and without K^30 ion. In 96-well plate, 1% dimethylsulfoxide (DMSO) in buffer was added to negative and positive control groups and the diluted compounds of the present invention in buffer were added to test group. All assays were performed in 100μl reaction volume at room temperature, and the hog gastric vesicle was kept in ice before use. At the beginning of the reaction, 10μl of reaction buffer containing 1% DMSO was added to the negative and positive control groups and to reaction buffer each concentration of compounds in the test group. Then lyophilized vesicle in 5mM Pipes/Tris buffer (pH 6.1) was pre-incubated in the presence of various concentrations of test compounds. After a 5 minute incubation, negative and positive buffers were respectively added to the previous reaction mixture. As the substrate, ATP was added to the reaction buffer, and incubated for 30 minutes at 37° C. Enzymatic activity was stopped by the addition of colorimetric reagent (2X malachite green, 1X ammonium molybdate, X polyvinyl alcohol, 2X H2O) and the amount of mono phosphate (Pi) in the reaction was measured at 620nm using the micro plate reader (Genios Pro, TECAN). The difference between the Pi production with K^+and without K^+is taken as K^+stimulated H^+/K^+-ATPase activity. The IC50s of test compounds were calculated from each % inhibition value of compounds using the method of Litchfield-Wilcoxon (J. Pharmacol. Exp. Ther. (1949) 96, 99).

[2] = tested on: basal gastric acid secretion; assay: Inhibitory effects on basal gastric acid secretion in pylorus-ligated rats (Shay's rat model); type: in vivo, Sprague Dawley (SD) rats; conditions: oral, one hour before pylorus ligation, total acid output 5 hours after ligation, male SD rats
Protocol: Test Example 2. Inhibitory effects on basal gastric acid secretion in pylorus-ligated rats. Inhibitory effects of the compounds of the present invention on basal gastric acid secretion were performed according to Shay's rat model (Shay, H., et al., 1945, gastroenterology, 5, 43-61). Male Sprague Dawley (SD) rats (200±10 g body weight) were divided into 3 groups (n=5) and fasted for 24 hours with free access to water. Control group was orally administered with 0.5% methylcellulose alone and the other groups were orally administered with test compounds suspended in 0.5% methyl-cellulose solution at doses of 1, 3 and 10 mg/kg/5 ml one hour before pylorus ligation. Under ether anesthesia, the abdomens of the rats were incised and then the pylorus was ligated. 5 hours after ligation, the animals were sacrificed, and the gastric contents were collected. The collected contents were centrifuged at 1,000×g for 10 minutes to obtain the gastric juice. Total acid output was measured by 0.01N NaOH volume (ueq/ml) for automatic titration of the gastric juice to pH 7.0 and the ED50s of test compounds were calculated using the Litchfield-Wilcoxon method. % inhibitory activity was calculated from the following equation and the results are shown in Table 2. %inhibitory activity of test compound=(total acid output of control group−total acid output of the group treated with test compounds)/total acid output of control group X 100

Row | Structure (SMILES) | IC50 [1] [nM] | ED50 [2] [mg/kg]
1 | Cc1[nH]c2c(OCc3ccc(F)cc3)cncc2c1C [Example 1, 7-(4-fluorobenzyloxy)-2,3-dimethyl-1H-pyrrolo[3,2-c]pyridine hydrochloride] | 120 | 
2 | C#CCn1c(C)c(C)c2cncc(OCc3ccc(F)cc3)c21.Cl [Example 2, 7-(4-fluorobenzyloxy)-2,3-dimethyl-1-(prop-2-ynyl)-1H-pyrrolo[3,2-c]pyridine hydrochloride] | 10 | 1.1
3 | CCn1c(C)c(C)c2cncc(OCc3ccc(F)cc3)c21 [Example 3, 1-ethyl-7-(4-fluorobenzyloxy)-2,3-dimethyl-1H-pyrrolo[3,2-c]pyridine hydrochloride] | 40 | 
4 | Cc1c(C)n(CC2CC2)c2c(OCc3ccc(F)cc3)cncc12 [Example 4, 1-cyclopropylmethyl-7-(4-fluorobenzyloxy)-2,3-dimethyl-1H -pyrrolo[3,2-c]pyridine hydrochloride] | 10 | 
5 | C=CCn1c(C)c(C)c2cncc(OCc3ccc(F)cc3)c21 [Example 5, 1-allyl-7-(4-fluorobenzyloxy)-2,3-dimethyl-1H-pyrrolo[3,2-c]pyridine hydrochloride] | 280 | 
6 | Cc1c(C)n(Cc2cccc(F)c2)c2c(OCc3ccc(F)cc3)cncc12 [Example 6, 1-(3-fluorobenzyl)-7-(4-fluorobenzyloxy)-2,3-dimethyl-1H -pyrrolo[3,2-c]pyridine hydrochloride] | 30 | 
7 | COc1cccc(Cn2c(C)c(C)c3cncc(OCc4ccc(F)cc4)c32)c1 [Example 7, 7-(4-fluorobenzyloxy)-1-(3-methoxybenzyl)-2,3-dimethyl-1H -pyrrolo[3,2-c]pyridine hydrochloride] | 60 | 
8 | Cc1ccc(Cn2c(C)c(C)c3cncc(OCc4ccc(F)cc4)c32)cc1 [Example 8, 7-(4-fluorobenzyloxy)-2,3-dimethyl-1-(4-methylbenzyl)-1H -pyrrolo[3,2-c]pyridine hydrochloride] | 60 | 
9 | Cc1c(C)n(Cc2ccc(F)cc2)c2c(OCc3ccc(F)cc3)cncc12 [Example 9, 1-(4-fluorobenzyl)-7-(4-fluorobenzyloxy)-2,3-dimethyl-1H -pyrrolo[3,2-c]pyridine hydrochloride] | 50 | 
10 | Cc1c(C)n(Cc2ccc(C(F)(F)F)cc2)c2c(OCc3ccc(F)cc3)cncc12 [Example 10, 7-(4-fluorobenzyloxy)-2,3-dimethyl-1-(4-trifluoromethylbenzyl)-1H -pyrrolo[3,2-c]pyridine hydrochloride] | 340 | 
11 | Cc1c(C)n(CC(C)C)c2c(OCc3ccc(F)cc3)cncc12 [Example 11, 7-(4-fluorobenzyloxy)-1-isobutyl-2,3-dimethyl-1H-pyrrolo[3,2-c]pyridine hydrochloride] | 10 | 
12 | Cc1ccc(C)c(Cn2c(C)c(C)c3cncc(OCc4ccc(F)cc4)c32)c1 [Example 13, 1-(2,5-dimethylbenzyl)-7-(4-fluorobenzyloxy)-2,3-dimethyl-1H -pyrrolo[3,2-c]pyridine hydrochloride] | 1020 | 
13 | Cc1c(C)n(Cc2ccccc2Cl)c2c(OCc3ccc(F)cc3)cncc12 [Example 14, 1-(2-chlorobenzyl)-7-(4-fluorobenzyloxy)-2,3-dimethyl-1H -pyrrolo[3,2-c]pyridine hydrochloride] | 460 | 
14 | Cc1c(C)n(Cc2ccccc2F)c2c(OCc3ccc(F)cc3)cncc12 [Example 15, 1-(2-fluorobenzyl)-7-(4-fluorobenzyloxy)-2,3-dimethyl-1H -pyrrolo[3,2-c]pyridine hydrochloride] | 190 | 
15 | Cc1[nH]c2c(N3CCc4ccccc4C3)cncc2c1C [Example 27, 2-(2,3-dimethyl-1H-pyrrolo[3,2-c]pyridin-7-yl)-1,2,3,4-tetrahydroisoquinoline hydrochloride] | 460 | 
16 | Cc1c(C)n(Cc2ccc(F)cc2)c2c(N3CCc4ccccc4C3)cncc12 [Example 28, 2-[1-(4-fluorobenzyl)-2,3-dimethyl-1H-pyrrolo[3,2-c]pyridin-7-yl]-1,2,3,4-tetrahydroisoquinoline hydrochloride] | 190 | 
17 | COC(=O)c1ccc(Cn2c(C)c(C)c3cncc(N4CCc5ccccc5C4)c32)cc1 [Example 29, 1-(4-methoxycarbonylbenzyl)-7-(1,2,3,4-tetrahydroisoquinolin-2-yl)-2,3-dimethyl-1H-pyrrolo[3,2-c]pyridine hydrochloride] | 320 | 
18 | Cc1c(C)n(Cc2ccc3c(c2)OCCO3)c2c(N3CCc4ccccc4C3)cncc12 [Example 30, 2-[1-(2,3-dihydrobenzo[1,4]dioxin-6-ylmethyl)-2,3-dimethyl-1H-pyrrolo[3,2-c]pyridin-7-yl]-1,2,3,4-tetrahydroisoquinoline hydrochloride] | 170 | 
19 | COCCn1c(C)c(C)c2cncc(N3CCc4ccccc4C3)c21 [Example 31, 1-(2-methoxyethyl)-7-(1,2,3,4-tetrahydroisoquinolin-2-yl)-2,3-dimethyl-1H -pyrrolo[3,2-c]pyridine hydrochloride] | 170 | 
20 | Cc1c(C)n(Cc2ccc3ccccc3c2)c2c(N3CCc4ccccc4C3)cncc12 [Example 32, 1-(2-naphthylmethyl)-7-(1,2,3,4-tetrahydroisoquinolin-2-yl)-2,3-dimethyl-1H -pyrrolo[3,2-c]pyridine hydrochloride] | 290 | 
21 | C=COCCn1c(C)c(C)c2cncc(N3CCc4ccccc4C3)c21 [Example 33, 1-(2-vinyloxyethyl)-7-(1,2,3,4-tetrahydroisoquinolin-2-yl)-2,3-dimethyl-1H -pyrrolo[3,2-c]pyridine hydrochloride] | 410 | 
22 | Cc1c(C)n(CC2OCCO2)c2c(N3CCc4ccccc4C3)cncc12 [Example 34, 1-(1,3-dioxolan-2-ylmethyl)-7-(1,2,3,4-tetrahydroisoquinolin-2-yl)-2,3-dimethyl-1H -pyrrolo[3,2-c]pyridine hydrochloride] | 190 | 
23 | Cc1c(C)n(Cc2ccccc2)c2c(N3CCc4ccccc4C3)cncc12 [Example 35, 1-benzyl-7-(1,2,3,4-tetrahydroisoquinolin-2-yl)-2,3-dimethyl-1H -pyrrolo[3,2-c]pyridine hydrochloride] | 60 | 
24 | Cc1c(C)n(CC(C)C)c2c(N3CCc4ccccc4C3)cncc12 [Example 36, 1-isobutyl-7-(1,2,3,4-tetrahydroisoquinolin-2-yl)-2,3-dimethyl-1H -pyrrolo[3,2-c]pyridine hydrochloride] | 310 | 
25 | Cc1c(C)n(CC2CCC2)c2c(N3CCc4ccccc4C3)cncc12 [Example 37, 1-cyclobutylmethyl-7-(1,2,3,4-tetrahydroisoquinolin-2-yl)-2,3-dimethyl-1H -pyrrolo[3,2-c]pyridine hydrochloride] | 750 | 
26 | Cc1c(C)n(CC2CC2)c2c(N3CCc4ccccc4C3)cncc12 [Example 39, 2-(1-cyclopropylmethyl-2,3-dimethyl-1H-pyrrolo[3,2-c]pyridin-7-yl)-1,2,3,4-tetrahydroisoquinoline hydrochloride] | 240 | 
27 | CCn1c(C)c(C)c2cncc(N3CCc4ccccc4C3)c21 [Example 40, 2-(1-ethyl-2,3-dimethyl-1H-pyrrolo[3,2-c]pyridin-7-yl)-1,2,3,4-tetrahydroisoquinoline hydrochloride] | 30 | 
28 | Cc1c(C)n(Cc2cccc(C#N)c2)c2c(N3CCc4ccccc4C3)cncc12 [Example 41, 3-[7-(3,4-dihydro-1H-isoquinolin-2-yl)-2,3-dimethylpyrrolo[3,2-c]pyridin-1-ylmethyl]-benzonitrile hydrochloride] | 1810 | 

— US7541366B2, “Pyrrolo[3,2-c]pyridine derivatives and processes for the preparation thereof” (YUHAN Corporation, priority 2004, dated 2009)
